Reference: patent US7550456B2, “Substituted aryl cycloalkanoyl derivatives and methods of their use” (Wyeth, priority 2003, dated 2009)
Structures can show the parent of a compound that is named as a salt.

Target: T1, human hNET (Homo sapiens, UniProt P23975)
T1 construct: expressed in transfected cells; host or cells: MDCK-Net6 (MDCK cells, stably transfected)
Experiment: Norepinephrine (NE) uptake assay in MDCK-Net6 cells
Assay type: cell-based
Conditions: 1 μM test compound, [3H]NE uptake, read-out: % Inhibition @ 1 μM (hNET)
Summary of the method: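 Radiolabelled NE uptake was counted by scintillation after NaOH lysis, with 1 µM desipramine defining non-specific uptake. EC50 came from a logistic dose-response fit.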

T1 sequence (P23975 whole entry): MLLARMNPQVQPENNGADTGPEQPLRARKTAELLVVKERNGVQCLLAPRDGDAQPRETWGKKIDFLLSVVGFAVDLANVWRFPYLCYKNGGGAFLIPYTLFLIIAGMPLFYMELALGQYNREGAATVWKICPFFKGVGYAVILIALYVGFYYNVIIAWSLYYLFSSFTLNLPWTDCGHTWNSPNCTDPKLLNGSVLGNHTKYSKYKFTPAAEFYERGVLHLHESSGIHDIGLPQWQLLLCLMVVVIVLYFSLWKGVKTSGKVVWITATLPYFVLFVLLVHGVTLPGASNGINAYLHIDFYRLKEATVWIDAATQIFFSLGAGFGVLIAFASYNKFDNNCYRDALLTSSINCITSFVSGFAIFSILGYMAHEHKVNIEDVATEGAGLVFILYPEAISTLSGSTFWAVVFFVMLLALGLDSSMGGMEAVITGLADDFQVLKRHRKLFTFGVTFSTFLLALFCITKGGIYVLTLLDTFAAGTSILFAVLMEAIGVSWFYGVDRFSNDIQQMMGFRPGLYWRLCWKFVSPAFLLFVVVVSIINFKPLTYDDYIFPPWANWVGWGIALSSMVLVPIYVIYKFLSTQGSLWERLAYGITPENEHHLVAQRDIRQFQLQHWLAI

Structure (SMILES) | inhibition at 1 µM
CN1CCN(CC(c2ccc(OCc3ccc(Br)cc3F)cc2)C2(O)CCCCC2)CC1 (stereo not drawn) [Example 435, 1-[1-{4-[(4-bromo-2-fluorobenzyl)oxy]phenyl}-2-(4-methylpiperazin-1-yl)ethyl]cyclohexanol dihydrochloride] | 85%
OC1(C(CN2CCNCC2)c2ccc(OCc3ccc(C(F)(F)F)cc3)cc2)CCCCC1 (stereo not drawn) [Example 436, 1-[2-piperazin-1-yl-1-(4-{[4-(trifluoromethyl)benzyl]oxy}phenyl)ethyl]cyclohexanol dihydrochloride] | 63%
CN1CCN(CC(c2ccc(OCc3ccc(C(F)(F)F)cc3)cc2)C2(O)CCCCC2)CC1 (stereo not drawn) [Example 437, 1-[2-(4-methylpiperazin-1-yl)-1-(4-{[4-(trifluoromethyl)benzyl]oxy}phenyl)ethyl]cyclohexanol dihydrochloride] | 38%
OC1(C(CN2CCNCC2)c2ccc(OCc3cccc(C(F)(F)F)c3)cc2)CCCCC1 (stereo not drawn) [Example 438, 1-[2-piperazin-1-yl-1-(4-{[3-(trifluoromethyl)benzyl]oxy}phenyl)ethyl]cyclohexanol dihydrochloride] | 69%
CN1CCN(CC(c2ccc(OCc3cccc(C(F)(F)F)c3)cc2)C2(O)CCCCC2)CC1 (stereo not drawn) [Example 439, 1-[2-(4-methylpiperazin-1-yl)-1-(4-{[3-(trifluoromethyl)benzyl]oxy}phenyl)ethyl]cyclohexanol dihydrochloride] | 79%
OC1(C(CN2CCNCC2)c2ccc(OCc3ccccc3C(F)(F)F)cc2)CCCCC1 (stereo not drawn) [Example 440, 1-[2-piperazin-1-yl-1-(4-{[2-(trifluoromethyl)benzyl]oxy}phenyl)ethyl]cyclohexanol dihydrochloride] | 28%
CN1CCN(CC(c2ccc(OCc3ccccc3C(F)(F)F)cc2)C2(O)CCCCC2)CC1 (stereo not drawn) [Example 441, 1-[2-(4-methylpiperazin-1-yl)-1-(4-{[2-(trifluoromethyl)benzyl]oxy}phenyl)ethyl]cyclohexanol dihydrochloride] | 33%
COc1cc(C(CN2CCNCC2)C2(O)CCCCC2)ccc1OCc1ccccc1 (stereo not drawn) [Example 442, 1-{1-[4-(benzyloxy)-3-methoxyphenyl]-2-piperazin-1-ylethyl}cyclohexanol dihydrochloride] | 57%
COc1cc(C(CN2CCN(C)CC2)C2(O)CCCCC2)ccc1OCc1ccccc1 (stereo not drawn) [Example 443, 1-[1-[4-(benzyloxy)-3-methoxyphenyl]-2-(4-methylpiperazin-1-yl)ethyl]cyclohexanol dihydrochloride] | 90%
COc1cc(C(CN2CCNCC2)C2(O)CCCCC2)ccc1OCc1ccc2ccccc2c1 (stereo not drawn) [Example 444, 1-{1-[3-methoxy-4-(2-naphthylmethoxy)phenyl]-2-piperazin-1-ylethyl}cyclohexanol dihydrochloride] | 98%
COc1cc(C(CN2CCN(C)CC2)C2(O)CCCCC2)ccc1OCc1ccc2ccccc2c1 (stereo not drawn) [Example 445, 1-[1-[3-methoxy-4-(2-naphthylmethoxy)phenyl]-2-(4-methylpiperazin-1-yl)ethyl]cyclohexanol dihydrochloride] | 22%
COc1cc(C(CN2CCNCC2)C2(O)CCCCC2)ccc1OCc1ccc(Br)cc1F (stereo not drawn) [Example 446, 1-(1-{4-[(4-bromo-2-fluorobenzyl)oxy]-3-methoxyphenyl}-2-piperazin-1-ylethyl)cyclohexanol] | 69%
COc1cc(C(CN2CCN(C)CC2)C2(O)CCCCC2)ccc1OCc1ccc(Br)cc1F (stereo not drawn) [Example 447, 1-[1-{4-[(4-bromo-2-fluorobenzyl)oxy]-3-methoxyphenyl}-2-(4-methylpiperazin-1-yl)ethyl]cyclohexanol] | 97%
COc1cc(C(CN2CCNCC2)C2(O)CCCCC2)ccc1OCc1ccc(C(F)(F)F)cc1 (stereo not drawn) [Example 448, 1-[1-(3-methoxy-4-{[4-(trifluoromethyl)benzyl]oxy}phenyl)-2-piperazin-1-ylethyl]cyclohexanol dihydrochloride] | 78%
COc1cc(C(CN2CCN(C)CC2)C2(O)CCCCC2)ccc1OCc1ccc(C(F)(F)F)cc1 (stereo not drawn) [Example 449, 1-[1-(3-methoxy-4-{[4-(trifluoromethyl)benzyl]oxy}phenyl)-2-(4-methylpiperazin-1-yl)ethyl]cyclohexanol dihydrochloride] | 88%
OC1(C(CN2CCNCC2)c2ccc(OCCc3ccccc3)c(Cl)c2)CCCCC1 (stereo not drawn) [Example 452, 1-{1-[3-chloro-4-(2-phenylethoxy)phenyl]-2-piperazin-1-ylethyl}cyclohexanol dihydrochloride] | 35%
CN1CCN(CC(c2ccc(OCCc3ccccc3)c(Cl)c2)C2(O)CCCCC2)CC1 (stereo not drawn) [Example 453, 1-[1-[3-chloro-4-(2-phenylethoxy)phenyl]-2-(4-methylpiperazin-1-yl)ethyl]cyclohexanol dihydrochloride] | 82%
COc1cccc(COc2ccc(C(CN3CCNCC3)C3(O)CCCCC3)cc2Cl)c1 (stereo not drawn) [Example 454, 1-(1-{3-chloro-4-[(3-methoxybenzyl)oxy]phenyl}-2-piperazin-1-ylethyl)cyclohexanol dihydrochloride] | 99%
COc1cccc(COc2ccc(C(CN3CCN(C)CC3)C3(O)CCCCC3)cc2Cl)c1 (stereo not drawn) [Example 455, 1-[1-{3-chloro-4-[(3-methoxybenzyl)oxy]phenyl}-2-(4-methylpiperazin-1-yl)ethyl]cyclohexanol dihydrochloride] | 99%
COc1ccccc1COc1ccc(C(CN2CCNCC2)C2(O)CCCCC2)cc1Cl (stereo not drawn) [Example 456, 1-(1-{3-chloro-4-[(2-methoxybenzyl)oxy]phenyl}-2-piperazin-1-ylethyl)cyclohexanol dihydrochloride] | 90%

Now from value to compound:

inhibition at 1 µM | Structure (SMILES)
77% | COc1ccccc1COc1ccc(C(CN2CCN(C)CC2)C2(O)CCCCC2)cc1Cl (stereo not drawn) [Example 457, 1-[1-{3-chloro-4-[(2-methoxybenzyl)oxy]phenyl}-2-(4-methylpiperazin-1-yl)ethyl]cyclohexanol dihydrochloride]
58% | OC1(C(CN2CCNCC2)c2ccc(OCCc3ccccc3)cc2)CCCCC1 (stereo not drawn) [Example 459, 1-{1-[4-(2-phenylethoxy)phenyl]-2-piperazin-1-ylethyl}cyclohexanol dihydrochloride]
82% | CN1CCN(CC(c2ccc(OCCc3ccccc3)cc2)C2(O)CCCCC2)CC1 (stereo not drawn) [Example 460, 1-{2-(4-methylpiperazin-1-yl)-1-[4-(2-phenylethoxy)phenyl]ethyl}cyclohexanol dihydrochloride]
47% | OC1(C(CN2CCNCC2)c2ccc(OCCc3ccc(F)cc3)cc2)CCCCC1 (stereo not drawn) [Example 462, 1-(1-{4-[2-(4-fluorophenyl)ethoxy]phenyl}-2-piperazin-1-ylethyl)cyclohexanol dihydrochloride]
69% | CN1CCN(CC(c2ccc(OCCc3ccc(F)cc3)cc2)C2(O)CCCCC2)CC1 (stereo not drawn) [Example 463, 1-[1-{4-[2-(4-fluorophenyl)ethoxy]phenyl}-2-(4-methylpiperazin-1-yl)ethyl]cyclohexanol dihydrochloride]
33% | OC1(C(CN2CCNCC2)c2ccc(OCCc3cccc4ccccc34)cc2)CCCCC1 (stereo not drawn) [Example 464, 1-(1-{4-[2-(1-naphthyl)ethoxy]phenyl}-2-piperazin-1-ylethyl)cyclohexanol dihydrochloride]
20% | COc1ccc(CCOc2ccc(C(CN3CCN(C)CC3)C3(O)CCCCC3)cc2)cc1 (stereo not drawn) [Example 466, 1-[1-{{4-[2-(4-methoxyphenyl)ethoxy]phenyl}-2-(4-methylpiperazin-1-yl)ethyl]cyclohexanoldihydrochloride]
0% | CN1CCN(CC(c2ccc(OCC3CCCCC3)cc2)C2(O)CCCCC2)CC1 (stereo not drawn) [Example 468, 1-[1-[4-(cyclohexylmethoxy)phenyl]-2-(4-methylpiperazin-1-yl)ethyl]cyclohexanol dihydrochloride]
12% | C[C@@H](Oc1ccc(C(CN2CCN(C)CC2)C2(O)CCCCC2)cc1)c1ccccc1 (stereo partly drawn) [Example 469, 1-(2-(4-methylpiperazin-1-yl)-1-{4-[(1R)-1-phenylethoxy]phenyl}ethyl)cyclohexanol dihydrochloride]
14% | C[C@H](Oc1ccc(C(CN2CCN(C)CC2)C2(O)CCCCC2)cc1)c1ccccc1 (stereo partly drawn) [Example 470, 1-(2-(4-methylpiperazin-1-yl)-1-{4-[(1S)-1-phenylethoxy]phenyl}ethyl)cyclohexanol dihydrochloride]
